Converted amounts (≈) assume the structure as drawn. Read-outs that look alike come from different tables or passages of the source.
Assays:
[1] = brain penetration in healthy Rhesus macaque monkeys (LC-MS, MALDI IMS); format: in vivo; conditions: for Bulk Brain Homogenate, adjusted free concentration / Bulk Brain Homogenate, total concentration: LC-MS; for Terminal CSF / Terminal Plasma, adjusted free concentration: at necropsy; for Kp uu: male, rhesus monkey, brain homogenate / plasma, oral
Experimental: Pre-dose blood was collected daily and terminal blood, cerebrospinal fluid (CSF), and brain tissue was collected at necropsy. […] Blood, CSF, and bulk homogenates of brain tissue were analyzed by LC-MS bioanalysis.

P-gp (Mdr1-a) = test: in vivo; conditions: male, rat, brain / plasma, intravenous, P-gp knock-out rat
Experimental: (§1) At least three days prior to the start of the study, six male rats per group (total 24 rats) received surgically implanted femoral vein and carotid artery catheters for infusion of the test molecule and blood sampling, respectively. Doses were filtered prior to administration and the actual dose administered to the animals was quantified. All PK parameters were calculated based on the actual dose administered to each animal. Animals received an intravenous bolus loading dose followed by a constant intravenous infusion to maintain steady state of drug level. At the end of the infusion, animals were euthanized and brain tissues were collected. Tissue homogenates were prepared in PBS (1:4 w/v). LC-MS/MS method was used to quantitate drug concentrations. Tissue homogenate concentrations were corrected for test compound contained in residual plasma in the tissue. The tissue-to-plasma ratio was calculated by dividing corrected tissue concentration by steady-state plasma concentration. […] Data are reported as fraction unbound (Fu).

[2] = system: P-gp (Mdr1-a) and BCRP (ABCG2); test: in vivo; conditions: male, rat, brain / plasma, intravenous; for Kp: Brain:plasma (Kp) ratio; for Kp uu: Unbound brain:plasma ratio (Kp, uu)
Experimental: as §1

[3] = system: P-gp (P-glycoprotein/Mdr1-a) and BCRP (ABCG2); test: in vivo
Experimental: as §1

BCRP (ABCG2) = test: in vivo; conditions: male, rat, brain / plasma, intravenous, BCRP knock-out rat
Experimental: as §1

in vitro = conditions: rat, brain homogenate
Experimental: as §1

[4] = Phase 0 Arm A tumor pharmacokinetics (LC-MS/MS) in newly-diagnosed GBM patients
Experimental: (§2) The final presurgical dose will be administered 3-5 hours or 8-10 hours before tumor resection. Assignment to time-cohorts will be random. […] In each of the two time-cohorts, tumor PK and PD analyses will be performed at the Ivy Brain Tumor Center.
(§3) For PK analysis, blood, CSF, and brain tumor tissue samples (gadolinium enhancing and non-enhancing) will be collected intraoperatively. Additional blood samples will be obtained on Day 1 pre-dose and on Day 4 (the day of the surgery) at pre-dosing (trough level), 0.5, 1, 2, 4, 6, 9-, 12-, 24-, and 48-hours post-dose.
(§4) Tumor-to-plasma ratios will be calculated. All assays and analyses will be developed, validated, and performed at Ivy Brain Tumor Center.
(§5) Tumor tissue (enhancing and nonenhancing regions), cerebrospinal fluid (CSF), and plasma were collected. […] Evidence of PARP inhibition was assessed by 10 Gy ex vivo irradiation of surgical tissue and quantification of PARylation compared to non-irradiated control tissue.
(§6) Tumor tissue (enhancing and non-enhancing regions), cerebrospinal fluid (CSF), and plasma were collected. […] PARP inhibition was assessed by quantification of PAR induction after 10 Gy ex vivo irradiation in surgical tissue compared to non-irradiated control tissue. A PK ‘trigger’ determined eligibility for the therapeutic phase 2 expansion portion of the study.

[5] = clinical safety, Phase 0 and expansion phase Arm A; conditions: for tolerability: glioblastoma patients
Experimental: as §6

physchem = conditions: aqueous buffer
PARP activity = conditions: read-out: inhibition of PARP activity EC50; whole cell assay; cited from earlier work
clinical = conditions: human, oral
Experimental: as §2, §3, §4, §5, §6

PAR (PARP inhibition) = conditions: 17/22 patients
Source text: For PD analysis, intraoperatively-collected gadolinium-enhancing tumor tissue will be sectioned into 4 similarly-sized tissue portions. Two tissue specimens will be exposed to 10 Gy of IR using a RAD2000 device and two specimens will be sham irradiated (non-irradiated). One pair of sham control and 10 Gy radiated tissue will be fixed in formalin solution for FFPE slides. The other pair will be snap-frozen for PAR ELISA assay.
A ‘functional’ PD assay examining PAR activity in the setting of ex vivo irradiation will serve as a secondary endpoint in this protocol. In the Ivy Center's CLIA-certified PD Core, FFPE embedded tumor tissue from both ex vivo irradiated and non-irradiated to assess changes in PAR, cleaved caspase 3, γH2AX and Ki67 using immunohistochemistry (IHC) assays. Alternatively, ELISA assays to quantify PAR levels will be performed using frozen lysates from the second pair of control and irradiated samples.
Evidence of PARP inhibition was assessed by 10 Gy ex vivo irradiation of surgical tissue and quantification of PARylation compared to non-irradiated control tissue.
PARP inhibition was assessed by quantification of PAR induction after 10 Gy ex vivo irradiation in surgical tissue compared to non-irradiated control tissue.

[6] = system: cancer cells with mutant BRCA-1 and BRCA-2; conditions: read-out: inhibition of proliferation CC50; cited from earlier work
[7] = system: MGMT-unmethylated newly-diagnosed glioblastoma
Source text: Participants will continue receiving maintenance treatment until progression of disease, unacceptable toxicity or death, withdrawal of consent, loss to follow-up, or study termination by sponsor.
• 1. […] Expansion: Examine progression-free survival rate measured from time of surgery to date of recurrence.

[8] = brain penetration in mouse brain metastatic tumor model (LC-MS, MALDI IMS); format: in vivo, mice; conditions: for MALDI IMS Brain Section Median, adjusted free concentration / MALDI IMS Brain Section Median, total concentration / Bulk Brain Homogenate Avg, adjusted free concentration / Bulk Brain Homogenate Avg, total concentration / concentration at 2 h: 2 hr post final dose; for Bulk Brain Homogenate Avg, adjusted free concentration / Bulk Brain Homogenate Avg, total concentration: LC-MS; for concentration at 2 h: plasma, po QD 5 days, niraparib 35 mg/kg, olaparib 50 mg/kg, read-out: Terminal Plasma Avg, total concentration
Source text: Female mice (CrTac:NCr-Foxnlnu; 6 w/o) received 2.5E5 luciferase transfected human breast cancer line (MDA 231-BRM2-831) via intracardiac injection. Mice were imaged twice/week using bioluminescence imaging (BLI) to monitor tumor growth. […] Tissue collected between each imaging plane was homogenized for LC-MS bioanalysis.

[9] = Monkey 1, Day 1, po daily 5 days, niraparib 6 mg/kg, olaparib 10 mg/kg
[10] = Monkey 2, Day 1, po daily 5 days, niraparib 6 mg/kg, olaparib 10 mg/kg
[11] = healthy Rhesus macaque monkeys, five days oral administration
[12] = Unbound brain:plasma ratio (Kp, uu)
[13] = enhancing tumor tissue / plasma
[14] = non-enhancing tumor tissue / plasma
[15] = female, CrTac:NCr-Foxnlnu, mouse, oral, BM mice, from bulk brain homogenate and terminal plasma free concentrations
[16] = female, CrTac:NCr-Foxnlnu, mouse, oral, BM (brain metastases) mice
[17] = female, CrTac:NCr-Foxnlnu, mouse, oral, Control mice

## NC(=O)c1cccc2cn(-c3ccc([C@@H]4CCCNC4)cc3)nc12 [niraparib, (3S)-3-[4-{7-(aminocarbonyl)-2H-indazol-2-yl}phenyl]piperidine]
[1]; Monkey 1
  MALDI IMS Brain Section Average, adjusted free concentration: (10) ng/g
  Bulk Brain Homogenate, adjusted free concentration: (14) ng/g
  Terminal CSF: 9 ng/mL
  Terminal Plasma, adjusted free concentration: (31) ng/mL
[1]; [9]
  Pre-Dose Plasma, total concentration: BQL
[1]; Monkey 1, Day 2
  Pre-Dose Plasma, adjusted free concentration: 10 ng/mL
  Pre-Dose Plasma, total concentration: 28 ng/mL
[1]; Monkey 1, Day 3
  Pre-Dose Plasma, adjusted free concentration: 18 ng/mL
  Pre-Dose Plasma, total concentration: 49 ng/mL
[1]; Monkey 1, Day 4
  Pre-Dose Plasma, adjusted free concentration: 22 ng/mL
  Pre-Dose Plasma, total concentration: 59 ng/mL
[1]; Monkey 1, Day 5
  Pre-Dose Plasma, adjusted free concentration: (26) ng/mL
  Pre-Dose Plasma, total concentration: 72 ng/mL
[1]; Monkey 1, at necropsy after 5 daily oral doses
  Terminal Plasma, total concentration: 84 ng/mL
[1]; Monkey 2
  MALDI IMS Brain Section Average, adjusted free concentration: (25) ng/g
  Bulk Brain Homogenate, adjusted free concentration: (29) ng/g
  Terminal CSF: 25 ng/mL
  Terminal Plasma, adjusted free concentration: (160) ng/mL
[1]; [10]
  Pre-Dose Plasma, total concentration: BQL
[1]; Monkey 2, Day 2
  Pre-Dose Plasma, adjusted free concentration: 21 ng/mL
  Pre-Dose Plasma, total concentration: 58 ng/mL
[1]; Monkey 2, Day 3
  Pre-Dose Plasma, adjusted free concentration: 32 ng/mL
  Pre-Dose Plasma, total concentration: 87 ng/mL
[1]; Monkey 2, Day 4
  Pre-Dose Plasma, adjusted free concentration: 27 ng/mL
  Pre-Dose Plasma, total concentration: 74 ng/mL
[1]; Monkey 2, Day 5
  Pre-Dose Plasma, adjusted free concentration: (24) ng/mL
  Pre-Dose Plasma, total concentration: 66 ng/mL
[1]; [11]
  Kp,uu,brain, times higher for niraparib compared to olaparib: 15 ×
  detection and distribution in coronal brain sections by MALDI IMS: consistent concentrations distributed throughout the brain parenchyma
[1]; Monkey 2, from bulk brain homogenate and terminal plasma free concentrations, read-out: Kp, uu Brain/Plasma
  Kp uu: 0.16
[1]; mean of Monkey 1 and 2, read-out: Mean Kp, uu Brain/Plasma
  Kp uu: 0.3
P-gp (Mdr1-a); Brain:plasma (Kp) ratio
  Kp: 3.7
P-gp (Mdr1-a); [12]
  Kp uu: 0.87
[2]; P-gp/BCRP double knock-out rat
  Kp: 6.3
  Kp uu: 1.5
[2]; control rat
  Kp: 0.47
  Kp uu: 0.1
[3]; BCRP knockout rats vs control
  increase of brain tissue concentrations: < 2 fold
[3]; Mdr1-a (P-gp) knockout rats vs control, iv bolus plus infusion, steady state
  increase of brain tissue concentrations: 9 fold
[3]; Pgp/BCRP double knockout rats vs control
  increase of brain tissue concentrations: 14 fold
BCRP (ABCG2); Brain:plasma (Kp) ratio
  Kp: 0.64
BCRP (ABCG2); [12]
  Kp uu: 0.15
In vitro
  fraction unbound: 0.04
[4]; 200 mg, 3-5 hr cohort 1 (n=6)
  mean unbound concentration in Gd-nonenhancing tumor region: 250.8 nM
[4]; 300 mg QD 4 days, 3-5 hr cohort (n=8), interim results
  mean unbound concentration in Gd-nonenhancing tumor region: 340.9 nM
[4]; 300 mg QD 4 days, 8-12 hr cohort (n=3)
  mean unbound concentration in Gd-nonenhancing tumor region: 331.9 nM
[4]; 300 mg, 3-5 hr cohort 1 (n=20)
  mean unbound concentration in Gd-nonenhancing tumor region: 366.2 nM
[4]; 300 or 200 mg QD 4 days, 29 patients, further interim results
  mean unbound concentration in non-enhancing regions: 258.2 nM
[5]; 6 initial patients enrolled in phase 2, niraparib with concurrent RT
  patients with thrombocytopenia related to niraparib: Five of the 6
[5]; Phase 0, twelve patients, 300 mg QD 4 days
  patients with Grade 3 treatment-related adverse event (ALT and AST elevation): one patient
[5]; both phases
  serious AEs after starting dose lowered to 200 mg: no serious AEs were observed thereafter
[5]; expansion phase, two patients enrolled
  patients with treatment-related thrombocytopenia: two patients
[5]
  tolerability: well-tolerated, with low rates of grade 3+ toxicity
[5]; listed as Niraparib
  tolerability: generally well-tolerated
[5]; of the 5 thrombocytopenia cases in phase 2
  thrombocytopenia cases deemed serious and life-threatening: 3/5
physchem
  solubility: 700 to 1100 µg/mL (≈ 2180 to 3430 µM)
PARP activity
  EC50: 4 nM
clinical; [13]
  Kp: 7.89
  Kp uu: 1.8
clinical; [14]
  Kp: 4.27
  Kp uu: 0.8
PAR (PARP inhibition)
  patients with suppression of PAR levels after ex vivo radiation: 79%
[6]
  CC50: 10 to 100 nM
[7]; MGMT-unmethylated PK-responders, niraparib in addition to radiotherapy
  outcome of the 6 patients with ≥6 months follow-up: four are in remission and two had a recurrence of tumor
[7]; niraparib with concurrent RT then maintenance, 11 patients, median follow-up 8.1 months
  PFS6: 64%
[8]; BM mice
  estimated mean Kp,uu,brain, times higher for niraparib compared to olaparib: 5.6 ×
  MALDI IMS Brain Section Median, adjusted free concentration: 80
  MALDI IMS Brain Section Median, total concentration: 473
  Bulk Brain Homogenate Avg, adjusted free concentration: 91 ng/g
  Bulk Brain Homogenate Avg, total concentration: 543 ng/g
[8]; Control mice
  MALDI IMS Brain Section Median, adjusted free concentration: 89
  MALDI IMS Brain Section Median, total concentration: 532
  Bulk Brain Homogenate Avg, adjusted free concentration: 111 ng/g
  Bulk Brain Homogenate Avg, total concentration: 658 ng/g
[8]; control mice
  estimated mean Kp,uu,brain, times higher for niraparib compared to olaparib: 3.0 ×
[8]; [15]
  Kp uu at 2 h post final dose: 0.18
[8]; female, CrTac:NCr-Foxnlnu, mouse, oral, Control mice, from bulk brain homogenate and terminal plasma free concentrations
  Kp uu at 2 h: 0.18
[8]; [16]
  concentration at 2 h: 2540 ng/mL
[8]; [17]
  concentration at 2 h: 3100 ng/mL
[8]; mice administered niraparib
  distribution in coronal brain sections by MALDI IMS: consistent concentrations distributed throughout the brain parenchyma with locally higher concentrations detected from tumor regions

## O=C(c1cc(Cc2n[nH]c(=O)c3ccccc23)ccc1F)N1CCN(C(=O)C2CC2)CC1 [olaparib]
[1]; Monkey 1
  MALDI IMS Brain Section Average, total concentration: BLQ
  Bulk Brain Homogenate, adjusted free concentration: (2) ng/g
  Bulk Brain Homogenate, total concentration: 12 ng/g
  Terminal CSF: 13 ng/mL
  Terminal Plasma, adjusted free concentration: (99) ng/mL
[1]; [9]
  Pre-Dose Plasma, total concentration: BQL
[1]; Monkey 1, Day 2
  Pre-Dose Plasma, adjusted free concentration: 8 ng/mL
  Pre-Dose Plasma, total concentration: 27 ng/mL
[1]; Monkey 1, Day 3
  Pre-Dose Plasma, adjusted free concentration: 8 ng/mL
  Pre-Dose Plasma, total concentration: 26 ng/mL
[1]; Monkey 1, Day 4
  Pre-Dose Plasma, adjusted free concentration: 10 ng/mL
  Pre-Dose Plasma, total concentration: 33 ng/mL
[1]; Monkey 1, Day 5
  Pre-Dose Plasma, adjusted free concentration: (10) ng/mL
  Pre-Dose Plasma, total concentration: 33 ng/mL
[1]; Monkey 1, from bulk brain homogenate and terminal plasma free concentrations
  Kp, uu Brain/Plasma: 0.02
[1]; Monkey 2
  MALDI IMS Brain Section Average, total concentration: BLQ
  Bulk Brain Homogenate, adjusted free concentration: (2) ng/g
  Bulk Brain Homogenate, total concentration: 11 ng/g
  Terminal CSF: 6 ng/mL
  Terminal Plasma, adjusted free concentration: (78) ng/mL
[1]; [10]
  Pre-Dose Plasma, total concentration: BQL
[1]; Monkey 2, Day 2
  Pre-Dose Plasma, adjusted free concentration: 16 ng/mL
  Pre-Dose Plasma, total concentration: 51 ng/mL
[1]; Monkey 2, Day 3
  Pre-Dose Plasma, adjusted free concentration: 5 ng/mL
  Pre-Dose Plasma, total concentration: 17 ng/mL
[1]; Monkey 2, Day 4
  Pre-Dose Plasma, adjusted free concentration: 16 ng/mL
  Pre-Dose Plasma, total concentration: 53 ng/mL
[1]; Monkey 2, Day 5
  Pre-Dose Plasma, adjusted free concentration: (14) ng/mL
  Pre-Dose Plasma, total concentration: 45 ng/mL
[1]; Monkey 2, from bulk brain homogenate and terminal plasma free concentrations
  Kp, uu Brain/Plasma: 0.03
[1]; [11]
  detection and distribution in coronal brain sections by MALDI IMS: not detected
[1]; mean of Monkey 1 and 2
  Mean Kp, uu Brain/Plasma: 0.02
[8]; BM mice
  Bulk Brain Homogenate Avg, adjusted free concentration: 2 ng/g
  Bulk Brain Homogenate Avg, total concentration: 11 ng/g
[8]; Control mice
  Bulk Brain Homogenate Avg, adjusted free concentration: 2 ng/g
  Bulk Brain Homogenate Avg, total concentration: 12 ng/g
[8]; Control mice, from bulk brain homogenate and terminal plasma free concentrations
  Kp, uu Brain: 0.02
[8]; [15]
  Kp uu at 2 h post final dose: 0.03
[8]; [16]
  concentration at 2 h: 254 ng/mL
[8]; [17]
  concentration at 2 h: 322 ng/mL
